These results are taken from patent US20120052125A1, “Cholesteryl Sulfate-Containing Composition As A Haemostatic” (DR. SUWELACK SKIN & HEALTH CARE AG, priority 2008, published 2012).

Data set [1] is described as follows: Solubility of cholesteryl sulfate salts. Format: physicochemical.
Data set [2] can be described thus: Stability of cholesteryl sulfate salts. Format: physicochemical.
Another data set has as its system porcine whole blood. Put plainly: Sonoclot analysis (clotting time ACT and clot rate) in recalcified porcine whole blood. Format: biochemical. To be noted: for ACT / clot rate: 360 μl porcine whole blood, recalcified with 20 μl 0.2 M calcium chloride, 1.1 mg carrier, SCS as 4% by wt vesicle solution. The source says: The haemostatic effect of cholesteryl sulfate as such was investigated using a Sonoclot®Coagulation & Platelet Function Analyzer by Scienco® Inc with regard to the clotting time (ACT) and clot rate. In this case, the ACT value indicates the time until the onset of the first thickening of the blood, which matches the time required by the system for generating a first blood clot. The clot rate indicates the speed with which the clot solidifies, and is there fore a measure for fibrin formation.
For the investigations presently illustrated, different quantities of cholesteryl sulfate in the form of its sodium salt was dissolved in methanol, and aliquots were transferred into the reaction vessels. By evaporating the methanol, the cholesteryl sulfate was precipitated as a layer on the bottom of the reaction vessel. Then 360 μl of porcine citrate blood were put into the reaction vessel, and 20 μl 0.2 M calcium chloride solution were subsequently added for recalcification. Both the time until coagulation (ACT) as well as the clot formation rate were measured with the Sonoclot Analyzer.
In order to show the enhanced effects in blood clotting of the combination of cholesteryl sulphate as a haemostatic agent and a haemostatic carrier material such as collagen the Sonoclot-Test has been carried out according to example 1.
The test condition and materials were in accordance with example 1.
As a carrier material freeze-dried, milled collagen from the company Dr. Suwelack Skin & Health Care AG (SHC) as well as collagen from bovine tendon from the company Sigma Aldrich have been examined in the Sonoclot-Analyzer and compared to cholesteryl sulphate as well as to a combination of the collagen and cholesteryl sulphate (SCS).
For the examination of the collagen carrier material 1.1 mg carrier material were transferred into the reaction vessels containing 360 μl porcine whole blood. 12.5 μl isosmotic saline solution (NaCl) were subsequently admixed and 20 μl 0.2 M calcium chloride solution were subsequently added for recalcification. Both the time until coagulation (ACT) as well as the clot formation rate were measured with the Sonoclot Analyzer. High clot rate indicates fast fibrin formation and thus fast clot formation.
For the examination of the collagen carrier material in combination with cholesteryl sulphate instead of isosmotic saline solution 12.5 μl of a cholesteryl sulphate vesicle solution containing 4% by wt cholesteryl sulphate is admixed with the carrier material.
For the examination of the cholesteryl sulphate a 4% by wt vesicle solution alone was tested accordingly.
The vesicle solution was prepared as described in example 2, Nr. 2 a).

As for `CC(C)CCC[C@@H](C)[C@H]1CC[C@H]2[C@@H]3CC=C4C[C@@H](OS(=O)(=O)[O-])CC[C@]4(C)[C@H]3CC[C@]12C.[K+]` [potassium cholesteryl sulfate], the “solubility compared with sodium cholesteryl sulfate” value in data set [1] (e.g. in methanol) was “less soluble”. Besides, the water-solubility entry in data set [1] is “only small water-solubility”. In addition, in data set [2], the “stability compared with sodium cholesteryl sulfate” value was “greater stability”.
For `CC(C)CCC[C@@H](C)[C@H]1CC[C@H]2[C@@H]3CC=C4C[C@@H](OS(=O)(=O)[O-])CC[C@]4(C)[C@H]3CC[C@]12C.[Na+]` [12.5 μl SCS, sodium cholesteryl sulfate], the water-solubility result in data set [1] is given as “only small water-solubility”. Also, in the data set with porcine whole blood (Experiment 1), the ACT is 90 s and the clot rate is 17. Further, in the data set with porcine whole blood (Experiment 2), the ACT was 81 s and the clot rate turned out to be 29. Further, in the data set on porcine whole blood (non-activated system, no pre-incubation), the effect on coagulation result is on record as “coagulation-promoting effect”.
